What was measured:
[1] = Apparent (surface) pKa of the LNP formulation (TNS assay); assay type: physicochemical
Summary of the method: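 Fluorescence of TNS probe added to LNP samples (mRNA 0.04 mg/mL) was read across 21 buffers of pH about 3-12, triplicate per pH. The inflection point of the sigmoidal fluorescence-vs-pH curve, […], gives apparent pKa; method validated in 1× PBS and Tris/sucrose buffer.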

[2] = tested on: luciferase (Luc) mRNA; assay: Luc expression, whole body bioluminescence after intravenous administration to mice; assay type: in vivo; details: for Total Flux 3 hours / Total Flux 6 hours / Total Flux 24 hours: Luc mRNA; for Novel lipid/MC3 expression ratio, 6 hr. time point, i.v.: relative to MC3 formulation; for Fold increase in total body Luc Flux relative to MC3 at 6 h: Table 3A
Summary of the method: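 Bioluminescence, read as region-of-interest total flux at 3, 6 and 24 h, followed a single 0.5 mg/kg intravenous dose of Luc mRNA-loaded nanoparticles in mice (n=6). Luciferin substrate (200 μL, 15 mg/mL in PBS) was injected intraperitoneally into CD-1 mice 15 minutes ahead of each imaging point.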

[3] = Encapsulation efficiency of RNA (QUANT-IT RIBOGREEN RNA assay); assay type: physicochemical; details: for % Encapsulation: lipid nanoparticle, ±SD within one assay run (Table 37)
Summary of the method: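 RiboGreen fluorescence (ex ~480, em ~520 nm) compared between intact samples and Triton X-100-lysed samples after 15 min at 37 °C in TE buffer, pH 7.5. Percent free RNA is the blank-corrected intact/disrupted ratio.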

[4] = tested on: luciferase (Luc) mRNA; assay: Luc expression (total flux) after intramuscular administration; assay type: in vivo, mice; details: for Total flux (p/s) 0.01 mpk Dose: Table 5B; for Total flux (p/s) 0.01 mpk Dose / Total flux, 0.001 mpk Dose / Total flux, 0.01 mpk Dose: 6 hours after intramuscular administration; for Novel lipid/MC3 expression ratio, 6 hr. time point, i.m. Luc / AUC (p/s * h) / Lipid/MC3 AUC: intramuscular; for Novel lipid/MC3 expression ratio, 6 hr. time point, i.m. Luc: relative to MC3 formulation; for AUC (p/s * h) / Lipid/MC3 AUC: Table 3H, Luc; for Total flux, 0.001 mpk Dose / Total flux, 0.01 mpk Dose: Luc mRNA and H10 mRNA
Summary of the method: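 Total-flux luciferase signal in mice after one intramuscular injection. Nanoparticle formulations contained modified Luc mRNA, either alone or co-dosed with H10 mRNA (e.g., 0.0005 or 0.005 mpk of each), giving 0.001 or 0.01 mpk.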

[5] = Table 1B, formulated with hEPO mRNA
[6] = Table 1C, compositions for subcutaneous administration
[7] = Table 1D, for subcutaneous administration, # formulated with hEPO mRNA
[8] = Table 1E, compositions for subcutaneous administration
[9] = lipid nanoparticle, ±SD within one assay run (Table 37)

| SMILES | pKa ([1]; Table 1A) | Total Flux 3 hours ([2]; mice, i.v., 0.5 mg/kg) | Total Flux 6 hours ([2]; mice, i.v., 0.5 mg/kg) | Total Flux 24 hours ([2]; mice, i.v., 0.5 mg/kg) | EE (%) ([3]; Table 1A) | EE (%) [3, 5] [%] | % EE [3, 6] [%] | Total flux (p/s) 0.01 mpk Dose ([4]; 0.01 mpk) [p/s] | Novel lipid/MC3 expression ratio, 6 hr. time point, i.m. Luc [4] | AUC (p/s * h) [4] [p/s * h] | Lipid/MC3 AUC [4] | Total flux, 0.001 mpk Dose [4] [p/s] | Total flux, 0.01 mpk Dose ([4]; 0.01 mpk) [p/s] | other results |
| --- | --- | --- | --- | --- | --- | --- | --- | --- | --- | --- | --- | --- | --- | --- |
| CCCCCCCCCOC(=O)CCCCCCCN(CCCCCCCC(=O)OC(CCCCCCCC)CCCCCCCC)CCCNC(=O)N(C)C [Compound 110, Heptadecan-9-yl 8-((3-(3,3-dimethylureido)propyl)(8-(nonyloxy)-8-oxooctyl)amino)octanoate] | 8.03 | 1.89E+09 | 2.57E+09 | 1.11E+08 | 91.9 | 92.39 | 91.9 | 1.21E+08 | 3.74 | – | – | – | – | Apparent pKa ([1]; Table 3G): 8.03 |
| CCCCCCCCCOC(=O)CCCCCCCN(CCCCCCCC(=O)OC(CCCCCCCC)CCCCCCCC)CCCNC(=S)N(C)C [Compound 111, Heptadecan-9-yl 8-((3-(3,3-dimethylthioureido)propyl)(8-(nonyloxy)-8-oxooctyl)amino)octanoate] | 7.13 | 1.89E+10 | 3.57E+10 | 8.86E+08 | 76.8 | 91.23 | – | 1.58E+08 | 4.88 | – | – | – | – | i.v. Lipid/MC3 0.5 mpk, Luc, 6 h ([2]; Table 3B, i.v., 0.5 mpk, 6 h): 2.6; Novel lipid/MC3 expression ratio, 6 hr. time point, i.v. ([2]; luciferase, intravenous): 2.59; % EE [3, 7]: 90.9%; % EE [3, 8]: 88%; i.m. Lipid/MC3 0.01 mpk, Luc, 6 h ([4]; Table 3B, i.m., 0.01 mpk, 6 h): 4.9 |
| CCCCCCCCCOC(=O)CCCCCCCN(CCCCCCCC(=O)OC(CCCCCCCC)CCCCCCCC)CCCNC(=O)NC [Compound 112, Heptadecan-9-yl 8-((3-(3-methylureido)propyl)(8-(nonyloxy)-8-oxooctyl)amino)octanoate] | 7.78 | 9.69E+08 | 1.04E+09 | 2.75E+07 | 99.0 | 96.40 | 99.0 | 9.47E+07 | 2.93 | – | – | – | – | Apparent pKa ([1]; Table 3G): 7.78 |
| CCCCCCCCCOC(=O)CCCCCCCN(CCCCCCCC(=O)OC(CCCCCCCC)CCCCCCCC)CCCNC(=S)NC [Compound 113, Heptadecan-9-yl 8-((3-(3-methylthioureido)propyl)(8-(nonyloxy)-8-oxooctyl)amino)octanoate] | 6.93 | 5.16E+09 | 8.09E+09 | 1.30E+08 | 96.92 | – | 99.6 | – | 1.58 | 1.01E+09 | 1.71 | – | – | – |
| CCCCCCCCC(C)OC(=O)CCCCCN(CCO)CCCCCCCC(=O)OC(CCCCCCCC)CCCCCCCC (centres unmarked) [Compound 122, Heptadecan-9-yl 8-((6-(decan-2-yloxy)-6-oxohexyl)(2-hydroxyethyl)amino)octanoate] | 6.83 | 3.64E+10 | 8.64E+10 | 1.95E+09 | 98.2 | 96.27 | 94.8 | 9.19E+07 | 2.84 | – | – | – | – | Apparent pKa ([1]; Table 3G): 6.83; Novel lipid/MC3 ratio, 6 hr. timepoint, i.v. ([2]; luciferase, intravenous, relative to MC3, Table 3G): 3.23; Novel lipid/MC3 expression ratio, 6 hr. time point, i.v. ([2]; luciferase, intravenous): 3.23 |
| CCCCCCCCC(CCCCCCCC)OC(=O)CCCCCCCN(CCO)CCCCCC(=O)OC(CCCCCCCC)C1CC1 (centres unmarked) [Compound 128, Heptadecan-9-yl 8-((6-((1-cyclopropylnonyl)oxy)-6-oxohexyl)(2-hydroxyethyl)amino)octanoate] | 6.56 | 1.04E+11 | 8.99E+10 | 1.00E+09 | 92.45 | – | – | – | – | 8.59E+08 | 1.46 | – | – | Fold increase in total body Luc Flux relative to MC3 at 6 h ([2]; i.v. administration): 4.05; Novel lipid/MC3 expression ratio, 6 hr. time point, i.v. ([2]; luciferase, intravenous): 4.05; total flux at 3 hours ([2]; mice, i.v., 0.5 mg/kg, comparison in words): highest; % EE [3, 8]: 94% |
| CCCCCCCCCOC(=O)CCCCCCCN(CCO)CCCCCCCC(=O)OCCCCCCCCC [Compound 138, Dinonyl 8,8′-((2-hydroxyethyl)azanediyl)dioctanoate] | 7.39 | 2.97E+07 | 2.30E+07 | 1.63E+06 | 91.8 | – | – | – | – | – | – | 2.72E+05 | 1.19E+06 | surface pKa ([1]; LNP, Example 26): > 7; pKa [1, 9]: 7.39 ± 0.07; % Encapsulation [3]: 91.8 ± 0.9% |
| CCCCCCCC/C=C\COC(=O)CCCCCN(CCO)CCCCCC(=O)OC/C=C\CCCCCCCC [Compound 140, Di((Z)-undec-2-en-1-yl) 6,6′-((2-hydroxyethyl)azanediyl)dihexanoate] | 7.71 | 3.74E+06 | 1.70E+06 | 5.67E+05 | 89.2 | – | – | – | – | – | – | 2.03E+05 | 6.09E+05 | flux at all timepoints measured ([2]; mice, i.v., 0.5 mg/kg, 3, 6 and 24 hour, in words): significantly lower flux |
| CCCCCCCCCOC(=O)CCCCCCCN(CCO)CCCCCCC(=O)OCC(CCCCCCCC)CCCCCCCC [Compound 143, Nonyl 8-((2-hydroxyethyl)(7-((2-octyldecyl)oxy)-7-oxoheptyl)amino)octanoate] | 6.47 | 1.76E+10 | 2.03E+10 | 2.47E+08 | 97.37 | – | – | – | 4.05 | 2.29E+09 | 3.89 | – | – | – |
| CCCCCCCCCOC(=O)CCCCCCCN(CCO)CCCCCCCC(=O)N(CCCCCCCC)CCCCCCCC [Compound 144, Nonyl 8-((8-(dioctylamino)-8-oxooctyl)(2-hydroxyethyl)amino)octanoate] | 7.09 | 9.50E+09 | 1.82E+09 | 3.36E+08 | 90.3 | – | – | – | – | – | – | 2.72E+06 | 2.18E+07 | – |
| CCCCC/C=C\C/C=C\CCCCCCCCC(CCCCCCCC/C=C\C/C=C\CCCCC)OC(=O)CCCN(C)C [MC3, DLin-MC3-DMA, reference compound] | – | 1.58E+10 | 2.12E+10 | 7.19E+08 | 97.3 | 99.01 | 98.2 | 3.23E+07 | – | 5.88E+08 | 1 | 2.76E+06 | 3.68E+07 | Apparent pKa [1, 5]: 6.35; pKa [1, 9]: 6.30 ± 0.03; Lipid/MC3 Luc expression ([2]; 0.5 mpk dose to mouse, 6 hours after administration): 1; Fold increase in total body Luc Flux relative to MC3 at 6 h ([2]; i.v. administration): 1.00; 6 h Lipid/MC3 Avg. Luc Expression ([2]; Table 3C, i.v. administration): 1; Fold increase AUC Lipid/MC3 ([2]; Table 3C, i.v. administration): 1; AUC (h * p/s) ([2]; Table 3C, i.v. administration, Luc): 8.24E+10 h * p/s; Lipid/MC3 AUC ([2]; Table 3D, intravenous): 1; AUC (p/s * h) ([2]; Table 3D, intravenous, Luc): 1.909E+011 p/s * h; Average total flux (6 h, ffluc) ([2]; mice, intravenous, 6 h): 6.59 × 10^9; Fold increase in average total flux relative to MC3 ([2]; mice, intravenous, 6 h): 1; % EE [3, 7]: 98.7%; % EE [3, 8]: 98%; % Encapsulation [3]: 97.3 ± 1.9%; EE ([3]; lipid:DSPC:Chol:PEG-DMG (50:10:38.5:1.5), hEPO mRNA): 97.22%; EE ([3]; nanoparticle composition with hEPO mRNA (Table 30)): 91.66% |
